Source: patent US20240209027A1, “PEPTIDE AND PEPTIDE-CONTAINING COMPOSITION” (PeptiAID Inc.,, priority 2021, published 2024)
Read-outs that look alike come from different tables or passages of the source. Starred links: 1 amine or outer side, 2 acyl side, 3 side chain; linkers in the order of their positions; H or OH if unused. Positions of bridges follow the written chain, without caps; N, C: chain ends. Non-standard residues stand in square brackets, D forms with d. Residues, ends and D or L forms follow the SMILES beside them. Chains are numbered I, II in the order given. *: point of attachment. X5 = O=C(O)CCCCCCCCCCCCC(=O)N[C@@H](CCC(=O)N[C@@H](CCCCN*)C(=O)O)C(=O)O; X4 = O=C(O)CCCCCCCCCCC(=O)N[C@@H](CCC(=O)N[C@@H](CCCCN*)C(=O)O)C(=O)O; X6 = O=C(O)CCCCCCCCC(=O)N[C@@H](CCC(=O)N[C@@H](CCCCN*)C(=O)O)C(=O)O; Ala(piperidin-4-yl) = O=C([C@H](CC1CCN([*:3])CC1)N[*:1])[*:2]; Phe(4-COOH) = N[C@@H](Cc1ccc(C(=O)O)cc1)C(=O)O; Phe(4-F) = N[C@@H](Cc1ccc(F)cc1)C(=O)O; C12 diacid = O=C(O)CCCCCCCCCCC(=O)*; X1 = C[C@@H](Cc1ccc(O)cc1)C(=O)*; NMeE = CN[C@@H](CCC(=O)O)C(=O)O; Cha = N[C@@H](CC1CCCCC1)C(=O)O; Cit = NC(=O)NCCC[C@H](N)C(=O)O; NMeNle = CCCC[C@H](NC)C(=O)O; hCys = N[C@@H](CCS)C(=O)O; PEG2 = NCCOCCOCCC(=O)O; X2 = O=C(C[*:1])[*:2]; Aib = CC(C)(N)C(=O)O

How the values were obtained:
Assay type in all cases: cell-based
[1] = target: SARS-CoV-2-derived S protein, Gamma strain (Severe acute respiratory syndrome coronavirus 2, UniProt P0DTC2, L18F/T20N/P26S/D138Y/R190S/K417T/E484K/N501Y/D614G/H655Y/T1027I/V1176F, form not given)
[2] = target: SARS-CoV-2-derived S protein, Alpha strain (Severe acute respiratory syndrome coronavirus 2, UniProt P0DTC2, DEL69-70/DEL144-144/N501Y/A570D/D614G/P681H/T716I/S982A/D1118H, form not given)
[3] = target: SARS-CoV-2-derived S protein, Beta strain (Severe acute respiratory syndrome coronavirus 2, UniProt P0DTC2, D80A/D215G/DEL241-243/K417N/E484K/N501Y/D614G/A701V, form not given)
[4] = test system: SARS-CoV-2-derived S protein, Delta strain

Q: What does the source list for C[C@H]1C(=O)N(C)[C@@H](Cc2ccccc2)C(=O)N[C@@H](CO)C(=O)N[C@@H](CC2CCCCC2)C(=O)N[C@@H](Cc2ccc(O)cc2)C(=O)N[C@@H](CO)C(=O)N[C@@H](Cc2ccc(O)cc2)C(=O)N[C@@H](Cc2ccc(O)cc2)C(=O)N[C@@H](CCCNC(=N)N)C(=O)N[C@@H](CCCNC(=N)N)C(=O)N[C@@H](CC2CCCCC2)C(=O)N[C@H](C(=O)N[C@H](CCC(=O)O)C(N)=O)CSCC(=O)N1C [Peptide 5555_p000, MeA-MeF-S-Cha-Y-S-Y-Y-R-R-Cha-C]?
A: Imax: % (at 500 nM) [1]: 100%; Imax: % (at 500 nM) [2]: 100%; Imax: % (at 500 nM) [3]: 100%; IC50 ([4]; Table 3): […]; Imax: % (at 500 nM) ([4]; Table 3): […]

Q: What does the source list for CCCC[C@H]1C(=O)NC(C)(C)C(=O)N[C@@H](CC2CCCCC2)C(=O)N[C@@H](Cc2ccc(F)cc2)C(=O)NC(C)(C)C(=O)N[C@@H](Cc2ccc(O)cc2)C(=O)N[C@@H](Cc2ccc(O)cc2)C(=O)N[C@@H](Cc2ccc(C(=O)O)cc2)C(=O)N[C@@H](CC2CCNCC2)C(=O)N[C@@H](CC2CCCCC2)C(=O)N[C@H](C(=O)N[C@H](CCC(=O)O)C(N)=O)CSCC(=O)N(C)[C@@H](CCC(=O)O)C(=O)N1C [Peptide 5555_p020] ({CH2CO}-[NMeE][NMeNle][Aib][Cha][Phe(4-F)][Aib]YY[Phe(4-COOH)][Ala(piperidin-4-yl)][Cha]C[dE]-NH2; thioether N-12)?
A: Imax: % (at 500 nM) [1]: 100%; Imax: % (at 500 nM) [2]: 100%; Imax: % (at 500 nM) [3]: 100%

Q: For CCCC[C@H]1C(=O)NC(C)(C)C(=O)N[C@@H](CC2CCCCC2)C(=O)N[C@@H](Cc2ccc(F)cc2)C(=O)N[C@H](CC(=O)O)C(=O)N[C@@H](Cc2ccc(O)cc2)C(=O)N[C@@H](Cc2ccc(O)cc2)C(=O)N[C@@H](CCCNC(N)=O)C(=O)N[C@H](CCCCN)C(=O)N[C@@H](CC2CCCCC2)C(=O)N[C@H](C(=O)N[C@H](CCC(=O)O)C(=O)O)CSCC(=O)N(C)[C@@H](CCC(=O)O)C(=O)N1C [Peptide 5555_p028] ({CH2CO}-[NMeE][NMeNle][Aib][Cha][Phe(4-F)][dD]YY[Cit][dK][Cha]C[dE]-OH; thioether N-12), which “Imax: % (at 500 nM)” value [1] is on record?
A: Its value is 95%.

Q: And the “Imax: % (at 500 nM)” value [2]?
A: Its value is 96%.

Q: What about the “Imax: % (at 500 nM)” value [3] of the same compound?
A: The value was 93%.

Q: How did the IC50 ([4]; Table 12) turn out when CCCC[C@@H](C(=O)NC(C)(C)C(=O)N[C@@H](CC1CCCCC1)C(=O)N[C@@H](Cc1ccc(F)cc1)C(=O)N[C@H](CC(=O)O)C(N)=O)N(C)C(=O)[C@H](CCC(=O)O)N(C)C(=O)CSCC[C@H](NC(=O)[C@H](CC1CCCCC1)NC(=O)[C@@H](CCCCN)NC(=O)[C@H](CCCNC(N)=O)NC(=O)[C@H](Cc1ccc(O)cc1)NC(=O)[C@@H](C)Cc1ccc(O)cc1)C(=O)N[C@H](CCC(=O)O)C(=O)N[C@H](CCCCNC(=O)CCCCCCCCCCC(=O)O)C(N)=O [Peptide 5555_p221] (I: X1-Y[Cit][dK][Cha][hCys][dE][dK](C12 diacid)-NH2 / II: [NMeE][NMeNle][Aib][Cha][Phe(4-F)][dD]-NH2; linker I:5-II:N via X2) was run?
A: The IC50 was 2.6 nM.

Q: What about the “Imax: % (at 500 nM)” value ([4]; Table 12) of the same compound?
A: The value was 97%.

Q: What does the source list for CCCC[C@H]1C(=O)NC(C)(C)C(=O)N[C@@H](CC2CCCCC2)C(=O)N[C@@H](Cc2ccc(F)cc2)C(=O)N[C@H](CC(=O)O)C(=O)N[C@@H](Cc2ccc(O)cc2)C(=O)N[C@@H](Cc2ccc(O)cc2)C(=O)N[C@@H](CCCNC(N)=O)C(=O)N[C@H](CCCCN)C(=O)N[C@@H](CC2CCCCC2)C(=O)N[C@H](C(=O)N[C@H](CCC(=O)O)C(=O)NCCOCCOCCC(=O)N[C@H](CCCCNC(=O)CCCCCCCCCCC(=O)O)C(N)=O)CSCC(=O)N(C)[C@@H](CCC(=O)O)C(=O)N1C [Peptide 5555_p227] ({CH2CO}-[NMeE][NMeNle][Aib][Cha][Phe(4-F)][dD]YY[Cit][dK][Cha]C[dE][PEG2][dK](C12 diacid)-NH2; thioether N-12)?
A: IC50 ([4]; Table 12): 1.9 nM; Imax: % (at 500 nM) ([4]; Table 12): 100%

Q: CCCC[C@H]1C(=O)NC(C)(C)C(=O)N[C@@H](CC2CCCCC2)C(=O)N[C@@H](Cc2ccc(F)cc2)C(=O)N[C@H](CC(=O)O)C(=O)N[C@@H](Cc2ccc(O)cc2)C(=O)N[C@@H](Cc2ccc(O)cc2)C(=O)N[C@@H](CCCNC(N)=O)C(=O)N[C@H](CCCCN)C(=O)N[C@@H](CC2CCCCC2)C(=O)N[C@H](C(=O)N[C@H](CCC(=O)O)C(=O)NCCCC[C@H](NC(=O)CC[C@H](NC(=O)CCCCCCCCC(=O)O)C(=O)O)C(=O)O)CSCC(=O)N(C)[C@@H](CCC(=O)O)C(=O)N1C [Peptide 5555_p233] ({CH2CO}-[NMeE][NMeNle][Aib][Cha][Phe(4-F)][dD]YY[Cit][dK][Cha]C[dE]-X6; thioether N-12) was tested. Which IC50 ([4]; Table 12) did it give?
A: Its IC50 is 4.2 nM.

Q: What about the “Imax: % (at 500 nM)” value ([4]; Table 12) of the same compound?
A: Its value is 99%.

Q: What does the source list for CCCC[C@H]1C(=O)NC(C)(C)C(=O)N[C@@H](CC2CCCCC2)C(=O)N[C@@H](Cc2ccc(F)cc2)C(=O)N[C@H](CC(=O)O)C(=O)N[C@@H](Cc2ccc(O)cc2)C(=O)N[C@@H](Cc2ccc(O)cc2)C(=O)N[C@@H](CCCNC(N)=O)C(=O)N[C@H](CCCCN)C(=O)N[C@@H](CC2CCCCC2)C(=O)N[C@H](C(=O)N[C@H](CCC(=O)O)C(=O)NCCCC[C@H](NC(=O)CC[C@H](NC(=O)CCCCCCCCCCC(=O)O)C(=O)O)C(=O)O)CSCC(=O)N(C)[C@@H](CCC(=O)O)C(=O)N1C [Peptide 5555_p234] ({CH2CO}-[NMeE][NMeNle][Aib][Cha][Phe(4-F)][dD]YY[Cit][dK][Cha]C[dE]-X4; thioether N-12)?
A: IC50 ([4]; Table 12): 5.9 nM; Imax: % (at 500 nM) ([4]; Table 12): 99%

Q: Which results are given for CCCC[C@H]1C(=O)NC(C)(C)C(=O)N[C@@H](CC2CCCCC2)C(=O)N[C@@H](Cc2ccc(F)cc2)C(=O)N[C@H](CC(=O)O)C(=O)N[C@@H](Cc2ccc(O)cc2)C(=O)N[C@@H](Cc2ccc(O)cc2)C(=O)N[C@@H](CCCNC(N)=O)C(=O)N[C@H](CCCCN)C(=O)N[C@@H](CC2CCCCC2)C(=O)N[C@H](C(=O)N[C@H](CCC(=O)O)C(=O)NCCCC[C@H](NC(=O)CC[C@H](NC(=O)CCCCCCCCCCCCC(=O)O)C(=O)O)C(=O)O)CSCC(=O)N(C)[C@@H](CCC(=O)O)C(=O)N1C [Peptide 5555_p235] ({CH2CO}-[NMeE][NMeNle][Aib][Cha][Phe(4-F)][dD]YY[Cit][dK][Cha]C[dE]-X5; thioether N-12)?
A: IC50 ([4]; Table 12): 7 nM; Imax: % (at 500 nM) ([4]; Table 12): 99%
